Among the data in patent US20210087188A1, “5,6-DIHYDRO-1 1H-INDOLO{2,3-B}QUINOLIN- 11-ONE COMPOUNDS AS ALK INHIBITORS” (THE REGENTS OF THE UNIVERSITY OF MICHIGAN, priority 2018, published 2021) are IC50 values, retold here.

Structures can show the parent of a compound that is named as a salt.

A word on the IC50: it is the concentration needed to halve the response being measured.

The target in the test is T1, wild-type human ALK protein (cytoplasmic domain, amino acid 1058-1620, N-terminal GST-fusion) (Homo sapiens, UniProt Q9UM73).
T1 construct: The cytoplasmic domain (amino acid 1058-1620) of wild-type human ALK protein; GST (N); purchased Carna Biosciences, Inc (Japan)
T1 sequence (Q9UM73 1058-1620): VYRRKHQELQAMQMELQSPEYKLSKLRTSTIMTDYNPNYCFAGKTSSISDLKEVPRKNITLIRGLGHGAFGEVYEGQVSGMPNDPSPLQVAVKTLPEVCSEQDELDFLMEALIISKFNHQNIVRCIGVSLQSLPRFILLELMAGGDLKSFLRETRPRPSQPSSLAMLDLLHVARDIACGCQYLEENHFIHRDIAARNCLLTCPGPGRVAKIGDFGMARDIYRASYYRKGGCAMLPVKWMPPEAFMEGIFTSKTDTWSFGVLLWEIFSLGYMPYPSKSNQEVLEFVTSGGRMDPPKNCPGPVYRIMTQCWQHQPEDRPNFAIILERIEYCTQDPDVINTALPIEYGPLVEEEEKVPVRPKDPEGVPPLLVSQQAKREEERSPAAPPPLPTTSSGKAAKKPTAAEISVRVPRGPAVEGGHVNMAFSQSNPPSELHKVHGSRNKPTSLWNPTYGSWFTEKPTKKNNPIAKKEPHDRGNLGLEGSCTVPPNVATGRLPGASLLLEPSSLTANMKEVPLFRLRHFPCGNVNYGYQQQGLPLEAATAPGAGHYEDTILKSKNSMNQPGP
In words: Enzymatic inhibition assay (time-resolved fluorescence, peptide substrate phosphorylation). The test is classed as biochemical. Particulars: ATP 100 μM, 30 min pre-incubation, 90 min reaction, read-out: WT IC50. How it is done:
Enzymatic Inhibition Assay
The cytoplasmic domain (amino acid 1058-1620) of wild-type human ALK protein expressed as N-terminal GST-fusion protein was purchased from Carna Biosciences, Inc (Japan). Compound solution (2.5 μL) and 5 μL of protein solution were added into a black low volume 384 well microtiter plate which was incubated for 30 minutes with gentle shaking at room temperature, followed by adding 2.5 μL of fluorescently labeled peptide substrate and ATP mixture solution. The kinase reaction was performed in 50 mM HEPES (pH 7.5) with 1 mM EGTA, 1 mM MgCl2, and 2 mM DTT, 0.01% Tween-20 added immediately prior to the assay. Final concentrations of ATP, substrates, and DMSO were 100 μM, 20 nM, and 0.5%, respectively. The final ALK concentrations were […]. The reaction was allowed to proceed for 90 minutes in the dark with gentle shaking at rt after which 10 μL of 20 mM EDTA and 2 nM Eu-W1024 anti-phosphotyrosine antibody (PT66) mixture solution in the detection buffer from the manufacturer was added to terminate the reaction and detect the phosphorylation of the peptide substrate. The final mixture was incubated in the dark for 1 h before the plate was read on a Tecan Infinite M-1000 multi-mode plate reader (Tecan, Durham N.C.) with an excitation wavelength of 320 nm. Emission intensities were measured at both 620 and 665 nm with the intensity ratio between 665 and 620 nm corresponding to the peptide substrate phosphorylation. IC50 values of inhibitors were obtained by fitting the ratio of 665/620 nm vs inhibitor concentrations in a sigmoidal dose-response curve (variable slope) with a non-linear regression.
Take `CC(C)Oc1c(N2CCN(C3CCOCC3)CC2)cc2c(c1F)c(=O)c1c3ccc(C#N)cc3[nH]c1n2C(C)C` [compound 2, 1-fluoro-2-isopropoxy-5-isopropyl-11-oxo-3-(4-(tetrahydro-2H-pyran-4-yl)piperazin-1-yl)-6,11-dihydro-5H-indolo[2,3-b]quinoline-8-carbonitrile]: the IC50 amounted to 1.5 nM.
In the case of `COc1c(N2C[C@@H](C)N(C)[C@@H](C)C2)cc2c(c1F)c(=O)c1c3ccc(C#N)cc3[nH]c1n2C(C)C` [compound 8, 1-fluoro-5-isopropyl-2-methoxy-11-oxo-3-(cis-3,4,5-trimethylpiperazin-1-yl)-6,11-dihydro-5H-indolo[2,3-b]quinoline-8-carbonitrile] it was 0.52 nM; in that of `COc1c(N2CCN(C3CCOCC3)CC2)cc2c(c1F)c(=O)c1c3ccc(C#N)cc3[nH]c1n2C(C)C` [compound 7, 1-fluoro-5-isopropyl-2-methoxy-11-oxo-3-(4-(tetrahydro-2H-pyran-4-yl)piperazin-1-yl)-6,11-dihydro-5H-indolo[2,3-b]quinoline-8-carbontrile], 1.4 nM; in that of `CC(C)Oc1c(N2CCC(N3CCOCC3)CC2)cc2c(c1F)c(=O)c1c3ccc(C#N)cc3[nH]c1n2C(C)C` [Cpd. No. 1, 1-fluoro-2-isopropoxy-5-isopropyl-3-(4-morpholinopiperidin-1-yl)-11-oxo-6,11-dihydro-5H-indolo[2,3-b]quinoline-8-carbonitrile], 2.4 nM.
Then `CC(C)Oc1c(N2CCN(C(C)C)CC2)cc2c(c1F)c(=O)c1c3ccc(C#N)cc3[nH]c1n2C(C)C` [compound 4, 1-fluoro-2-isopropoxy-5-isopropyl-3-(4-isopropylpiperazin-1-yl)-11-oxo-6,11-dihydro-5H-indolo[2,3-b]quinoline-8-carbonitrile], with 0.83 nM.
Then `COCCOc1cc2c(=O)c3c4ccc(C#N)cc4[nH]c3n(C(C)C)c2c(F)c1N1CCN(C2CCOCC2)CC1` [compound 9, 4-fluoro-5-isopropyl-2-(2-methoxyethoxy)-11-oxo-3-(4-(tetrahydro-2H-pyran-4-yl)piperazin-1-yl)-6,11-dihydro-5H-indolo[2,3-b]quinoline-8-carbonitrile (TFA salt)], with 54.4 nM.
As for `CC(C)Oc1cc2c(=O)c3c4ccc(C#N)cc4[nH]c3n(C(C)C)c2c(F)c1N1C[C@@H](C)N(C)[C@@H](C)C1` [compound 11, 4-fluoro-2-isopropoxy-5-isopropyl-11-oxo-(cis-3,4,5-trimethylpiperazin-1-yl)-6,11-dihydro-5H-indolo[2,3-b]quinoline-8-carbonitrile (TFA salt)], the half-maximal inhibitory concentration (IC50) came out at 7.8 nM.
Consider `CC(C)Oc1c(N2C[C@@H](C)N(C)[C@@H](C)C2)cc2c(c1F)c(=O)c1c3ccc(C#N)cc3[nH]c1n2C(C)C` [compound 3, 1-fluoro-2-isopropoxy-5-isopropyl-11-oxo-3-(cis-3,4,5-trimethylpiperazin-1-yl)-6,11-dihydro-5H-indolo[2,3-b]quinoline-8-carbonitrile], for which the IC50 is 0.57 nM.
Then `COCCOc1cc2c(=O)c3c4ccc(C#N)cc4[nH]c3n(C(C)C)c2c(F)c1N1C[C@@H](C)N(C)[C@@H](C)C1` [compound 10, 4-f1uoro-5-isopropyl-2-(2-methoxyethoxy)-11-oxo-3-(cis-3,4,5-trimethylpiperazin-1-yl)-6,11-dihydro-5H-indolo[2,3-b]quinoline-8-carbonitrile (TFA salt)], with 16.9 nM.
Then `CC(C)Oc1c(N2CCN(C3COC3)CC2)cc2c(c1F)c(=O)c1c3ccc(C#N)cc3[nH]c1n2C(C)C` [compound 5, 1-fluoro-2-isopropoxy-5-isopropyl-3-(4-(oxetan-3-yl)piperazin-1-yl)-11-oxo-6,11-dihydro-5H-indolo[2,3-b]quinoline-8-carbonitrile], with 4.3 nM.
With `COc1c(N2CCN(C3COC3)CC2)cc2c(c1F)c(=O)c1c3ccc(C#N)cc3[nH]c1n2C(C)C` [compound 6, 1-fluoro-5-isopropyl-2-methoxy-3-(4-(oxetan-3-yl)piperazin-1-yl)-11-oxo-6,11-dihydro-5H-indolo[2,3-b]quinoline-8-carbonitrile], the IC50 was 5.4 nM.
